The subject of one assay is IGF-1R. Kind of assay: IGF-1R phosphorylation in cells (immunoblotting). The assay is classed as cell-based. The protocol: (A) DDN and CSN activate IR and its downstream signaling in CHO-IR cells. […] The cell lysates were analyzed by immunoblotting with anti-phospho-IR antibodies, or immunoprecipitated by PY20 and analyzed using anti-IR and anti-IRS-1, respectively. (B) DDN and CSN induce IR phosphorylation in a dose-dependent manner. CHO-IR cells were treated with the small compounds at different concentrations for 15 min, and the IR phosphorylation was monitored by immunoprecipitation and immunoblotting. (C) DDN, CSN induce IR phosphorylation in a time-dependent manner. […] (D) DDN and CSN induce IR phosphorylation and its downstream signaling in a dose-dependent manner. […] (E) DDN and CSN cannot induce IGF-1R or EGFR phosphorylation. CHO-IGF-1R or HEK293 cells were treated with EGF (100 nM), IGF-1 (100 nM), DDN (10 μM) or CSN (10 μM) for 15 min. The cell lysates were analyzed by immunoblotting with anti-pIGF-1R and anti-pEGFR.
(A) Chemical structure of 4524-E7. (B) Effect of 4524-E7 and other 1,4-naphthoquinone derivatives on IR phosphorylation in CHO-IR cells. CHO-IR cells were cultured in 96-well plates and treated with 5 μM compounds for 15 min at 37 C. Cells were lysed, and IR phosphorylations were tested by ELISA. The IR phosphorylation activities of the tested compounds were expressed as a percentage of the vehicle. (C) 4524-E7 and 1,4-naphthoquinone derivates activate IR and its downstream signaling in CHO-IR cells. […] The cell lysates were analyzed by immunoblotting with various indicated antibodies. The phosphorylated IR was immunoprecipitated using PY20 and analyzed by immunoblotting with anti-IR13 antibody. […] The phosphorylation of each receptor was determined by Western blot using specific antibodies as indicated. (E) 4524-E7 activates IR through its ICD. Upper panel: Diagram of chimaeric receptors. Lower panel: His-tagged wild-type IR, IGFR-IR, IR-IGFR, and IR-EGFR constructs were transfected into CHO cells followed vehicle or 5 μM 4524-E7 treatment for 30 min. Then the cells were lysated and the transfected receptor fused to His tag were pulled down with Ni+ beads, followed by western blot against anti-p-Tyr and anti-His. The cell lysates were tested with anti-p-Akt and anti-Akt.
A cell-based ELISA assay was developed with an IR stably transfected Chinese Hamster Ovary (CHO-IR) cell line. The cells were seeded in a 96-well plate and treated with 10 μM (15 min) compounds. The cell lysates were subjected to the sandwich ELISA using immobilized anti-phosphotyrosine antibody and anti-IR antibody. […] Among the positive hits, 1,4-naphthoquinone compounds were identified that can selectively activate IR but not IGF-1R (FIG. 1A). […] Total IR tyrosine phosphorylation was further confirmed by immunoprecipitation using anti-phosphotyrosine (PY20) antibody (FIG. 2A, 3rd panel). […]
On the technique in general: Immunoblotting shows a protein as a band on a membrane.

The target of a further assay is IR (Mus musculus, UniProt P15208). As to the kind of experiment: IR signaling in differentiated 3T3-L1 adipocytes (immunoblotting). Also on record: endogenous in cells; host or cells: differentiated 3T3-L1 adipocytes. The assay is classed as cell-based. Particulars: for Akt and ERK phosphorylation after IR knockdown / ERK phosphorylation after IR knockdown: siRNA against IR; for Akt and ERK phosphorylation after IR knockdown: 5 μM 4524-E7 or insulin 100 nM; for IR phosphorylation: 5 nM; for ERK phosphorylation after IR knockdown: insulin 100 nM 15 min or DDN 5 μM 30 min. As to the method: Insulin signaling in the cell lysates were tested by immunoblotting. (B) DDN stimulates glucose uptake. […] [3H]2-deoxyglucose was then added, and the cells were further incubated for 10 min. [3H]2-deoxyglucose uptake by adipocytes was measured by scintillation counting (*: P<0.05 **: P<0.01 vs control, Student's t-test, n=3). (C) DDN synergizes insulin's signaling. […] Cell lysates were then prepared for Western blot using specific antibodies as indicated. […] 3H-2-deoxyglucose was then added, and the cells were further incubated for 10 min. 3H-2-deoxyglucose uptake by adipocytes was measured by scintillation counting (*: P<0.05; **: P<0.01, Student's t-test, n=3). (E) IR is necessary for DDN to induce ERK phosphorylation. Differentiated 3T3-L1 adipocytes were transfected with control siRNA or siRNA against IR. […] Cell lysates were analyzed by Western blot. (F) The glucose uptake induced by DDN in p85α knockout MEF cells. […] The uptake of 3H-2-deoxyglucose was monitored by liquid scintillation counting (*: P<0.05; **: P<0.01 vs control, Student's t-test, n=3).
Sequence of IR (P15208 28-1372): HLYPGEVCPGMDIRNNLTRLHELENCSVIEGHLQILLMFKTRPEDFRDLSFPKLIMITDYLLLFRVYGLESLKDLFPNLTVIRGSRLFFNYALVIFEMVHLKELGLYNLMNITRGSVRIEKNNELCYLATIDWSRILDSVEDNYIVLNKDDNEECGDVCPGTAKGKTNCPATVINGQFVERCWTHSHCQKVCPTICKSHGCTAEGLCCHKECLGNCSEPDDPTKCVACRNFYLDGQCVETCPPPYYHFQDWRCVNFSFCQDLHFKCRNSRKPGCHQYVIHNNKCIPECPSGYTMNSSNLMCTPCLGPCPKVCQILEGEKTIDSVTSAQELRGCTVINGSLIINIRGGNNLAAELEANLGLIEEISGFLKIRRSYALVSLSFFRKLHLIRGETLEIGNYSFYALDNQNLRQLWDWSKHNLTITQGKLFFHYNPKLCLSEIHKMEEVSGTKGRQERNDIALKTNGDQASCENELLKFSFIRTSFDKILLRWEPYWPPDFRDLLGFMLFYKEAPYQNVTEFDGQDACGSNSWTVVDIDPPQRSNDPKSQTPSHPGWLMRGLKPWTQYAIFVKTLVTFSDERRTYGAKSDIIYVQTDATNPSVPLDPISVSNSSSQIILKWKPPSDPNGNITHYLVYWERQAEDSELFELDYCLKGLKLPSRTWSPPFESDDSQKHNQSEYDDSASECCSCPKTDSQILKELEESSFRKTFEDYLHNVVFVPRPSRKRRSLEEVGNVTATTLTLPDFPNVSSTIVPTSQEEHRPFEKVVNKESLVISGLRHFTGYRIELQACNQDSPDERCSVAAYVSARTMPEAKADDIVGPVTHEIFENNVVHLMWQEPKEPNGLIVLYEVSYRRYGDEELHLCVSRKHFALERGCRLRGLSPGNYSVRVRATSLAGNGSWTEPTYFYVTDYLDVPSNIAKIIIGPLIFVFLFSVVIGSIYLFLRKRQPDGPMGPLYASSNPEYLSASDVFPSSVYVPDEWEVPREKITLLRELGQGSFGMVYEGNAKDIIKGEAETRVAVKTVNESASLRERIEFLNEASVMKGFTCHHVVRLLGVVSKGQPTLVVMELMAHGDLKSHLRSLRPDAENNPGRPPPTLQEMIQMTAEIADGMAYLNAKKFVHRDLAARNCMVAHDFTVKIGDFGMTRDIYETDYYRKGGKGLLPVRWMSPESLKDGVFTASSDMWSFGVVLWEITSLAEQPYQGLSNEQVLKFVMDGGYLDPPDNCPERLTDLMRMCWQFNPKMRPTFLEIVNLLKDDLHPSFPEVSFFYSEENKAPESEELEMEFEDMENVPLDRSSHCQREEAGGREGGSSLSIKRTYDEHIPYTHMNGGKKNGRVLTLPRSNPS
(A) 4524-E7 activates IR phosphorylation and its downstream signaling in 3T3-L1 adipocytes. […] The cells were lysed, and immunoprecipitated with PY20, and followed by Western blot using specific antibodies. (B) 4524-E7 stimulates glucose uptake in 3T3-L1 adipocytes. […] [3H]2-deoxyglucose was added, and the cells were further incubated for 10 min. The amount of [3H]2-deoxyglucose taken by adipocytes was measured. (C) 4524-E7 inhibits fatty acid oxidation. […] Results were normalized to DMSO-treated cells and expressed as mean±S.E.M. (*: P<0.05; **:P<0.01, Student's t-test, n=3). (D) IR knockdown in adipocytes decreases IR signaling by 4524-E7. […] Cells lysates were collected and analyzed by Western blot. (E) The glucose uptake induced by 4524-E7 in p85α knockout MEF cells. […] The uptaken [3H] 2-deoxyglucose was monitored by liquid scintillation counter. Results were expressed as mean±S.E.M. (*: P<0.05; **:P<0.01, Student's t-test, n=3). […]

Take `O=C1c2ccccc2C(=O)C2SC(Nc3ccc(Cl)cc3)=NC12` (stereo not shown) [4524-E7, 2-((4-chlorophenyl)amino)naphtho[2,3-d]thiazole-4,9(3aH,9aH)-dione]: the IGF-1R activation entry is on record as “not any other RTKs” in the assay on IGF-1R (IGF-1R-transfected HEK293 cells, 5 μM) and “neither IGF-1R nor EGFR was activated” in the assay with IGF-1R (differentiated 3T3-L1 adipocytes). For the same compound, the “IR, Akt and Erk1/2 phosphorylation in combination with insulin” value at IR (4524-E7 plus 10 nM insulin) was “much more robust IR, Akt and Erk1/2 phosphorylation than insulin or 4524-E7 alone”. Besides, at IR (different concentrations, 15 min, alone), the “activation of endogenous IR” value is given as “could activate the endogenous IR”. For the same compound, the “Akt and ERK phosphorylation after IR knockdown” value on IR is recorded as “also reduced”.

As to `CC(=O)Oc1ccc(OC(C)=O)c2c1C(=O)C(Cl)=C(Cl)C2=O` [DDN, 5,8-diacetyloxy-2,3-dichloro-1,4-naphthoquinone], the IGF-1R activation result in the assay on IGF-1R (CHO-IGF-1R cells, 10 μM, 15 min) was “Neither IGF-1R nor EGFR was activated”. The “IR phosphorylation in combination with insulin” value on IR (5 nM DDN plus 5 nM insulin) is “higher than those observed when insulin or DDN was administrated separately”. Besides, the IR phosphorylation entry at IR (alone) was “did not induce any IR activation”. The “IR and Akt activation” value at IR (DDN 0.1, 0.25, 0.5 μM, 30 min) was “elicited a dose-dependent IR and Akt activation”. The “ERK phosphorylation after IR knockdown” value on IR is listed as “reduced when IR was depleted”.

In the case of “insulin: insulin, used as positive control”, in the assay with IR (alone), the IR phosphorylation entry is recorded as “able to trigger IR phosphorylation”. Also, in the assay with IR, the “Akt and ERK phosphorylation after IR knockdown” value is “also reduced”; the “ERK phosphorylation after IR knockdown” value is “reduced when IR was depleted”.

The values above are taken from patent US9040713B2, “Methods of managing blood sugar levels and compositions related thereto” (EMORY UNIVERSITY, priority 2010, dated 2015).
